The results in this text go back to US20240025906A1 (NEURON23, INC., priority 2022, published 2024).

Test [1] has as its target T1, TYK2 JH2 (Homo sapiens, UniProt P29597).
T1 construct: purchased DiscoverX (KINOMEscan KdELECT service); host or cells: E. coli BL21-derived (T7 phage display) or HEK-293
The test is described as follows: TYK2 JH2 binding assay (KINOMEscan KdELECT competitive binding). To be noted: TYK2 JH2 domain, DiscoverX KINOMEscan KdELECT (Assay A); read-out: Biochemical TYK2_DiscoverX_JH2_BND_Kd. An outline of the steps:
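Beads carrying a biotinylated ligand were mixed with tagged JH2 kinase and compound (11 points, 3-fold steps, 0.9% DMSO) and shaken 1 h at room temperature. After washing, kinase was released with 0.5 μM untagged ligand over 30 min and measured by qPCR to derive Kd.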

Test [2] has as its system JAK1/TYK2 pSTAT5 (Tyr694/699) in THP-1 cell line. The test is described as follows: IFNa-stimulated JAK1/TYK2 pSTAT5 (Tyr694/699) inhibition cellular assay, AlphaLISA. It is filed as cell-based. To be noted: Homo sapiens; THP-1 cells, IFNa-stimulated, AlphaLISA (Assay B); read-out: Cellular_THP1_IFNa-pSTATS_TYK2. An outline of the steps:
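THP-1, 2e4 cells/well, HBSS; cpd 1 h 37 °C (10000–0.04 nM final, 6-fold, 8 pt); IFNa 100 ng/mL added, 30 min; lyse, freeze −80 °C; pSTAT5 AlphaLISA, 615 nm; 4PL IC50, bottom fixed 0, slope −1.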

The structures appear in SMILES notation. Some results are limits rather than exact numbers.

T1 sequence (P29597 589-875 limits assumed): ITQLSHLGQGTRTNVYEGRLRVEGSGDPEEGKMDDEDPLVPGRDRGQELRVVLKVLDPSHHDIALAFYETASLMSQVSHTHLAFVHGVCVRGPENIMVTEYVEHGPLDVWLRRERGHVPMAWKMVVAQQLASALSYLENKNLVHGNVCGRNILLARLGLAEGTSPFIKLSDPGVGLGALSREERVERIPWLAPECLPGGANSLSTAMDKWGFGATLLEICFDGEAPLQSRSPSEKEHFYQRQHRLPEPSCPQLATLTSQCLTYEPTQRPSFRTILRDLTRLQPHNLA

Turning to `CNc1ncc(-c2nc3cc(-n4c(=O)ccn4C)ccc3o2)c2cc(NC(=O)C3CC3)ncc12` [Example 446, N-(5-(5-(2-methyl-5-oxo-2,5-dihydro-1H-pyrazol-1-yl)benzo[d]oxazol-2-yl)-8-(methylamino)-2,7-naphthyridin-3-yl)cyclopropanecarboxamide], the Kd in test [1] is ≤ 100 nM. The IC50 in test [2] was > 500 nM.
The corresponding values for `CNc1ncc(-c2nc3cc(N4CC5COCC(C4)N5C)ccc3o2)c2cc(NC(=O)C3CC3)ncc12` [Example 447, N-(5-(5-(9-methyl-3-oxa-7,9-diazabicyclo[3.3.1]nonan-7-yl)benzo[d]oxazol-2-yl)-8-(methylamino)-2,7-naphthyridin-3-yl)cyclopropanecarboxamide] are ≤ 100 nM and ≤ 500 nM.
The corresponding values for `CNc1ncc(-c2nc3cc(C4CCOCC4)ccc3o2)c2cc(NC(=O)C3CC3)ncc12` [Example 448, N-(8-(methylamino)-5-(5-(tetrahydro-2H-pyran-4-yl)benzo[d]oxazol-2-yl)-2,7-naphthyridin-3-yl)cyclopropanecarboxamide] are ≤ 100 nM and ≤ 500 nM.
Turning to `CNc1ncc(-c2nc3cc(N4CCOCC4)ccc3o2)c2cc(Nc3cc(C)nc(C)n3)ncc12` [Example 449, N^6-(2,6-dimethylpyrimidin-4-yl)-N^1-methyl-4-(5-morpholinobenzo[d]oxazol-2-yl)-2,7-naphthyridine-1,6-diamine], the Kd in test [1] is ≤ 100 nM. The IC50 in test [2] was ≤ 500 nM.
Consider `CNc1ncc(-c2nc3cc(N4CCOCC4)ccc3o2)c2cc(NC(=O)NC3CC3)ncc12` [Example 450, 1-cyclopropyl-3-(8-(methylamino)-5-(5-morpholinobenzo[d]oxazol-2-yl)-2,7-naphthyridin-3-yl)urea], for which the Kd in test [1] is ≤ 100 nM. In test [2], the IC50 is ≤ 500 nM.
Regarding `[2H]C([2H])([2H])Nc1ncc(-c2nc3cc(N4C5CCC4COC5)ccc3o2)c2cc(NC(=O)C3CC3)ncc12` [Example 453, N-(5-(5-(3-oxa-8-azabicyclo[3.2.1]octan-8-yl)benzo[d]oxazol-2-yl)-8-((methyl-d3)amino)-2,7-naphthyridin-3-yl)cyclopropanecarboxamide], in test [1], the Kd was ≤ 100 nM. Moreover, the IC50 in test [2] is ≤ 500 nM.
Turning to `[2H]C([2H])([2H])Nc1ncc(-c2nc3cc(OCC4CC4)ccc3o2)c2cc(NC(=O)C3CC3)ncc12` [Example 454, N-(5-(5-(cyclopropylmethoxy)benzo[d]oxazol-2-yl)-8-((methyl-d3)amino)-2,7-naphthyridin-3-yl)cyclopropanecarboxamide], the Kd in test [1] is ≤ 100 nM. In addition, in test [2], the IC50 is ≤ 500 nM.
The corresponding values for `[2H]C([2H])([2H])Nc1ncc(-c2nc3cc(N4C5CCC4COC5)ccc3o2)c2cc(NC(=O)[C@H]3C[C@H]3C)ncc12` [Example 455, (1S,2R)—N-(5-(5-(3-oxa-8-azabicyclo[3.2.1]octan-8-yl)benzo[d]oxazol-2-yl)-8-((methyl-d3)amino)-2,7-naphthyridin-3-yl)-2-methylcyclopropane-1-carboxamide] are ≤ 100 nM and ≤ 500 nM.
The corresponding values for `[2H]C([2H])([2H])Nc1ncc(-c2nc3cc(OCC4CC4)ccc3o2)c2cc(NC(=O)[C@H]3C[C@H]3C)ncc12` [Example 456, (1S,2R)—N-(5-(5-(cyclopropylmethoxy)benzo[d]oxazol-2-yl)-8-((methyl-d3)amino)-2,7-naphthyridin-3-yl)-2-methylcyclopropane-1-carboxamide] are ≤ 100 nM and ≤ 500 nM.
On to `CCNc1ncc(-c2nc3cc(N4CC5CN(C)CC(C4)O5)ccc3o2)c2cc(NC(=O)C3CC3)ncc12` [Example 457, N-(8-(ethylamino)-5-(5-(7-methyl-9-oxa-3,7-diazabicyclo[3.3.1]nonan-3-yl)benzo[d]oxazol-2-yl)-2,7-naphthyridin-3-yl)cyclopropanecarboxamide], for which the Kd in test [1] is ≤ 100 nM. The IC50 in test [2] is ≤ 500 nM.
The corresponding values for `CCNc1ncc(-c2nc3cc(N4CCOCC4)ccc3o2)c2cc(NC(=O)C3CC3)ncc12` [Example 458, N-(8-(ethylamino)-5-(5-morpholinobenzo[d]oxazol-2-yl)-2,7-naphthyridin-3-yl)cyclopropanecarboxamide] are ≤ 100 nM and ≤ 500 nM.
The corresponding values for `CCNc1ncc(-c2nc3cc(OC)ccc3o2)c2cc(NC(=O)C3CC3)ncc12` [Example 459, N-(8-(ethylamino)-5-(5-methoxybenzo[d]oxazol-2-yl)-2,7-naphthyridin-3-yl)cyclopropanecarboxamide] are ≤ 100 nM and ≤ 500 nM.
The corresponding values for `CNc1ncc(-c2nc3nc(C)ccc3o2)c2cc(NC(=O)C3CC3)ncc12` [Example 460, N-(8-(methylamino)-5-(5-methyloxazolo[4,5-b]pyridin-2-yl)-2,7-naphthyridin-3-yl)cyclopropanecarboxamide] are ≤ 100 nM and ≤ 500 nM.
As for `CNc1ncc(-c2nc3cc(/C(C)=N\OC)ccc3o2)c2cc(NC(=O)C3CC3)ncc12` [Example 462, (Z)—N-(5-(5-(1-(methoxyimino)ethyl)benzo[d]oxazol-2-yl)-8-(methylamino)-2,7-naphthyridin-3-yl)cyclopropanecarboxamide], the Kd in test [1] is ≤ 100 nM. Moreover, in test [2], the IC50 was ≤ 500 nM.
Taken in the same sequence, the figures for `CNc1ncc(-c2nc3cc(/C(C)=N/OC)ccc3o2)c2cc(NC(=O)C3CC3)ncc12` [Example 463, (E)-N-(5-(5-(1-(methoxyimino)ethyl)benzo[d]oxazol-2-yl)-8-(methylamino)-2,7-naphthyridin-3-yl)cyclopropanecarboxamide] were ≤ 100 nM and ≤ 500 nM.
`CNc1ncc(-c2nc3cc(-c4ncn(C)n4)ccc3o2)c2cc(NC(=O)C3CC3)ncc12` [Example 464, N-(5-(5-(1-methyl-1H-1,2,4-triazol-3-yl)benzo[d]oxazol-2-yl)-8-(methylamino)-2,7-naphthyridin-3-yl)cyclopropanecarboxamide]: in test [1], the Kd is ≤ 100 nM. For the same compound, the IC50 in test [2] is ≤ 500 nM.
Taken in the same sequence, the figures for `[2H]C([2H])([2H])Nc1ncc(-c2nc3cc(N4CC(OC)C4)ccc3o2)c2cc(NC(=O)[C@H]3C[C@H]3C)ncc12` [Example 469, (1S,2R)—N-(5-(5-(3-methoxyazetidin-1-yl)benzo[d]oxazol-2-yl)-8-((methyl-d3)amino)-2,7-naphthyridin-3-yl)-2-methylcyclopropane-1-carboxamide] were ≤ 100 nM and ≤ 500 nM.
The corresponding values for `CNc1ncc(-c2nc3ccc(OC)cn3n2)c2cc(NC(=O)C3CC3)ncc12` [Example 470, N-(5-(6-methoxy-[1,2,4]triazolo[1,5-a]pyridin-2-yl)-8-(methylamino)-2,7-naphthyridin-3-yl)cyclopropanecarboxamide] are ≤ 100 nM and ≤ 500 nM.
The corresponding values for `CNc1ncc(-c2nc3ccc(N4CCOCC4)cn3n2)c2cc(NC(=O)C3CC3)ncc12` [Example 471, N-(8-(methylamino)-5-(6-morpholino-[1,2,4]triazolo[1,5-a]pyridin-2-yl)-2,7-naphthyridin-3-yl)cyclopropanecarboxamide] are ≤ 100 nM and ≤ 500 nM.
For `CNc1ncc(-c2nc3ccc(N4CC(F)(F)C4)cn3n2)c2cc(NC(=O)C3CC3)ncc12` [Example 472, N-(5-(6-(3,3-difluoroazetidin-1-yl)-[1,2,4]triazolo[1,5-a]pyridin-2-yl)-8-(methylamino)-2,7-naphthyridin-3-yl)cyclopropanecarboxamide], the Kd in test [1] is ≤ 100 nM. In test [2], the IC50 was ≤ 500 nM.
Turning to `CNc1ncc(-c2nc3ccc(N4CC(F)C4)cn3n2)c2cc(NC(=O)C3CC3)ncc12` [Example 473, N-(5-(6-(3-fluoroazetidin-1-yl)-[1,2,4]triazolo[1,5-a]pyridin-2-yl)-8-(methylamino)-2,7-naphthyridin-3-yl)cyclopropanecarboxamide], the Kd in test [1] was ≤ 100 nM. Besides, the IC50 in test [2] was ≤ 500 nM.
Consider `CNc1ncc(-c2nc3ccc(N4CCC4)cn3n2)c2cc(NC(=O)C3CC3)ncc12` [Example 474, N-(5-(6-(azetidin-1-yl)-[1,2,4]triazolo[1,5-a]pyridin-2-yl)-8-(methylamino)-2,7-naphthyridin-3-yl)cyclopropanecarboxamide], for which the Kd in test [1] is ≤ 100 nM. The IC50 in test [2] was ≤ 500 nM.
Taken in the same sequence, the figures for `CNc1ncc(-c2nc3ccc(N4CC(O)C4)cn3n2)c2cc(NC(=O)C3CC3)ncc12` [Example 475, N-(5-(6-(3-hydroxyazetidin-1-yl)-[1,2,4]triazolo[1,5-a]pyridin-2-yl)-8-(methylamino)-2,7-naphthyridin-3-yl)cyclopropanecarboxamide] were ≤ 100 nM and ≤ 500 nM.
`CNc1ncc(-c2nc3ccc(N4CC(OC)C4)cn3n2)c2cc(NC(=O)C3CC3)ncc12` [Example 476, N-(5-(6-(3-methoxyazetidin-1-yl)-[1,2,4]triazolo[1,5-a]pyridin-2-yl)-8-(methylamino)-2,7-naphthyridin-3-yl)cyclopropanecarboxamide]: the Kd in test [1] was ≤ 100 nM. In addition, the IC50 in test [2] is ≤ 500 nM.
`CNc1ncc(-c2nc3ccc(N4CCO[C@H](C)C4)cn3n2)c2cc(NC(=O)C3CC3)ncc12` [Example 477, (R)-N-(8-(methylamino)-5-(6-(2-methylmorpholino)-[1,2,4]triazolo[1,5-a]pyridin-2-yl)-2,7-naphthyridin-3-yl)cyclopropanecarboxamide]: in test [1], the Kd was ≤ 100 nM. The IC50 in test [2] was ≤ 500 nM.
